System: MV-4-11 cells
Assay: Gene expression microarray analysis (Affymetrix PrimeView) and GSEA
Assay type: cell-based, human
Parameters: RFU PODN (11730768_x_at) / Fold change /veh PODN (11730768_x_at) / RFU LINC00158 (11744669_a_at) / Fold change /veh LINC00158 (11744669_a_at) / RFU DUSP10 (11751237_a_at) / Fold change /veh DUSP10 (11751237_a_at) / RFU ID3 (11757404_x_at) / Fold change /veh ID3 (11757404_x_at) / RFU PLEKHG5 (11737974_s_at) / Fold change /veh PLEKHG5 (11737974_s_at) / RFU LRRC4B (11730491_at) / Fold change /veh LRRC4B (11730491_at) / RFU GIMAP4 (11747438_a_at) / Fold change /veh GIMAP4 (11747438_a_at) / RFU KRT8 (11758183_x_at) / Fold change /veh KRT8 (11758183_x_at) / RFU CNN1 (11734310_a_at) / Fold change /veh CNN1 (11734310_a_at) / RFU VPS37D (11726825_at) / Fold change /veh VPS37D (11726825_at) / RFU C10orf10 (11716522_x_at) / Fold change /veh C10orf10 (11716522_x_at) / RFU KIR2DL2 /// KIR2DL4 /// KIR2DL5A /// KIR2DL5B /// KIR2DS1 /// KIR2DS2 /// KIR2DS3 /// KIR2DS4 /// KIR3DL3 /// KIR3DL3 /// KIR3DS1 (11738374_at) / Fold change /veh KIR2DL2 /// KIR2DL4 /// KIR2DL5A /// KIR2DL5B /// KIR2DS1 /// KIR2DS2 /// KIR2DS3 /// KIR2DS4 /// KIR3DL3 /// KIR3DL3 /// KIR3DS1 (11738374_at) / RFU C1QL1 (11718748_at) / Fold change /veh C1QL1 (11718748_at) / RFU TMPRSS4 (11747572_a_at) / Fold change /veh TMPRSS4 (11747572_a_at) / RFU HAMP (11756126_x_at) / Fold change /veh HAMP (11756126_x_at) / RFU RNFT2 (11725882_a_at) / Fold change /veh RNFT2 (11725882_a_at) / RFU NR4A2 (11747474_a_at) / Fold change /veh NR4A2 (11747474_a_at) / RFU ABCC12 (11746883_a_at) / Fold change /veh ABCC12 (11746883_a_at) / RFU TMEM136 (11760407_x_at) / Fold change /veh TMEM136 (11760407_x_at) / RFU CLDN22 /// WWC2 (11732394_at) / Fold change /veh CLDN22 /// WWC2 (11732394_at) / RFU HLA-DPB1 (11760878_x_at) / Fold change /veh HLA-DPB1 (11760878_x_at) / RFU SPINT1 (11716480_a_at) / Fold change /veh SPINT1 (11716480_a_at) / RFU GAP43 (11754022_s_at) / Fold change /veh GAP43 (11754022_s_at) / RFU A4GNT (11735810_at) / Fold change /veh A4GNT (11735810_at) / RFU PRB3 (11715151_x_at) / Fold change /veh PRB3 (11715151_x_at) / RFU TUBB4B (11761932_at) / Fold change /veh TUBB4B (11761932_at) / RFU CAPN14 (11732068_a_at) / Fold change /veh CAPN14 (11732068_a_at) / RFU TMCC2 (11721928_a_at) / Fold change /veh TMCC2 (11721928_a_at) / RFU IRGQ (11745062_a_at) / Fold change /veh IRGQ (11745062_a_at) / RFU FAM174B (11720279_a_at) / Fold change /veh FAM174B (11720279_a_at) / RFU TMPRSS4 (11748680_a_at) / Fold change /veh TMPRSS4 (11748680_a_at) / RFU FAM212B (11763350_a_at) / Fold change /veh FAM212B (11763350_a_at) / RFU PLEKHG5 (11743358_a_at) / Fold change /veh PLEKHG5 (11743358_a_at) / RFU ZSCAN30 (11745921_a_at) / Fold change /veh ZSCAN30 (11745921_a_at) / RFU CMKLR1 (11741424_a_at) / Fold change /veh CMKLR1 (11741424_a_at) / RFU LOC101060620 /// MAPK8IP1 (11723275_at) / Fold change /veh LOC101060620 /// MAPK8IP1 (11723275_at) / RFU SPTSSB (11747773_x_at) / Fold change /veh SPTSSB (11747773_x_at) / RFU PRSS12 (11739890_at) / Fold change /veh PRSS12 (11739890_at) / RFU BIN1 (11741810_x_at) / Fold change /veh BIN1 (11741810_x_at) / RFU WNT11 (11732464_a_at) / Fold change /veh WNT11 (11732464_a_at) / RFU C10orf10 (11716521_a_at) / Fold change /veh C10orf10 (11716521_a_at) / RFU C5orf56 (11738089_at) / Fold change /veh C5orf56 (11738089_at) / RFU CYB561 (11721691_x_at) / Fold change /veh CYB561 (11721691_x_at) / RFU ANKRD19P (11752326_a_at) / Fold change /veh ANKRD19P (11752326_a_at) / RFU OR2T12 /// OR2T33 /// OR2T8 (11738714_s_at) / Fold change /veh OR2T12 /// OR2T33 /// OR2T8 (11738714_s_at) / RFU VCAN (11748164_a_at) / Fold change /veh VCAN (11748164_a_at) / RFU JSRP1 (11732532_at) / Fold change /veh JSRP1 (11732532_at) / RFU KRTAP10-11 (11738290_x_at) / Fold change /veh KRTAP10-11 (11738290_x_at) / RFU MYO3A (11730013_a_at) / Fold change /veh MYO3A (11730013_a_at) / RFU EBF3 (11725865_a_at) / Fold change /veh EBF3 (11725865_a_at) / RFU CAMK2N1 (11719241_x_at) / Fold change /veh CAMK2N1 (11719241_x_at) / RFU C5orf56 (11738088_a_at) / Fold change /veh C5orf56 (11738088_a_at) / RFU OLFML3 (11715873_a_at) / Fold change /veh OLFML3 (11715873_a_at) / RFU LOC100653217 /// NTM (11731650_a_at) / Fold change /veh LOC100653217 /// NTM (11731650_a_at) / RFU MAPK11 (11762145_a_at) / Fold change /veh MAPK11 (11762145_a_at) / RFU FIZ1 (11724087_x_at) / Fold change /veh FIZ1 (11724087_x_at) / RFU OASL (11726364_x_at) / Fold change /veh OASL (11726364_x_at) / RFU SOX15 (11748057_x_at) / Fold change /veh SOX15 (11748057_x_at) / RFU CD79A (11719716_a_at) / Fold change /veh CD79A (11719716_a_at) / RFU HIST1H1D (11736915_at) / Fold change /veh HIST1H1D (11736915_at) / RFU CASKIN2 (11723855_a_at) / Fold change /veh CASKIN2 (11723855_a_at) / RFU LOC730098 (11760151_x_at) / Fold change /veh LOC730098 (11760151_x_at) / RFU OR4N2 (11742367_at) / Fold change /veh OR4N2 (11742367_at) / RFU PRRT2 (11749266_a_at) / Fold change /veh PRRT2 (11749266_a_at) / RFU SNX32 (11753110_a_at) / Fold change /veh SNX32 (11753110_a_at) / RFU CDHR5 (11726645_a_at) / Fold change /veh CDHR5 (11726645_a_at) / RFU RCAN1 (11760418_a_at) / Fold change /veh RCAN1 (11760418_a_at) / RFU FAM167A (11723789_a_at) / Fold change /veh FAM167A (11723789_a_at) / RFU FAM26E (11764081_at) / Fold change /veh FAM26E (11764081_at) / RFU ISYNA1 (11749810_s_at) / Fold change /veh ISYNA1 (11749810_s_at) / RFU ACY1 (11761880_at) / Fold change /veh ACY1 (11761880_at) / RFU 11764098_at / Fold change /veh 11764098_at / RFU SAMD14 (11745864_x_at) / Fold change /veh SAMD14 (11745864_x_at) / RFU NPB (11741838_a_at) / Fold change /veh NPB (11741838_a_at) / RFU TMPRSS6 (11731388_a_at) / Fold change /veh TMPRSS6 (11731388_a_at) / RFU KRTAP10-2 (11738614_at) / Fold change /veh KRTAP10-2 (11738614_at) / RFU ARHGAP8 /// PRR5-ARHGAP8 (11727945_x_at) / Fold change /veh ARHGAP8 /// PRR5-ARHGAP8 (11727945_x_at) / RFU KRTAP5-7 /// NADSYN1 (11734609_at) / Fold change /veh KRTAP5-7 /// NADSYN1 (11734609_at) / RFU RASL12 (11751679_a_at) / Fold change /veh RASL12 (11751679_a_at) / RFU CDKN2B (11736163_a_at) / Fold change /veh CDKN2B (11736163_a_at) / RFU PRF1 (11729649_at) / Fold change /veh PRF1 (11729649_at) / RFU, ZNF638 /// ZNF638-IT1 / Fold change vs veh, ZNF638 /// ZNF638-IT1 / RFU, PANK3 / Fold change vs veh, PANK3 / RFU, SH3YL1 / Fold change vs veh, SH3YL1 / RFU, ZEB2 / Fold change vs veh, ZEB2 / RFU, NRIP1 / Fold change vs veh, NRIP1 / RFU, PTTG1IP / Fold change vs veh, PTTG1IP / RFU, CAPN2 / Fold change vs veh, CAPN2 / RFU, MED14 / Fold change vs veh, MED14 / RFU, SNORA58 / Fold change vs veh, SNORA58 / RFU, C1orf63 / Fold change vs veh, C1orf63 / RFU, LRRFIP1 / Fold change vs veh, LRRFIP1 / RFU, NDUFAF7 / Fold change vs veh, NDUFAF7 / RFU, SLC12A2 / Fold change vs veh, SLC12A2 / RFU, IBTK / Fold change vs veh, IBTK / RFU, ESF1 / Fold change vs veh, ESF1 / Fold change vs veh, TMEM50B / RFU, TAOK1 / Fold change vs veh, TAOK1 / RFU, ACBD3 / Fold change vs veh, ACBD3 / RFU, TMA16 / Fold change vs veh, TMA16 / RFU, RWDD3 / Fold change vs veh, RWDD3 / RFU, BCAT1 / Fold change vs veh, BCAT1 / RFU, EDEM3 / Fold change vs veh, EDEM3 / RFU, TMEM33 / Fold change vs veh, TMEM33 / RFU, WDR75 / Fold change vs veh, WDR75 / RFU, AHCTF1 / Fold change vs veh, AHCTF1 / RFU, TFRC / Fold change vs veh, TFRC / RFU, ZDHHC17 / Fold change vs veh, ZDHHC17 / RFU, NOM1 / Fold change vs veh, NOM1 / RFU, ARL8B / Fold change vs veh, ARL8B / RFU, ZBTB11 / Fold change vs veh, ZBTB11 / RFU, TAMM41 / Fold change vs veh, TAMM41 / RFU, KIAA1704 /// LOC100996395 / Fold change vs veh, KIAA1704 /// LOC100996395 / RFU, ING1 / Fold change vs veh, ING1 / RFU, TRMT61B / Fold change vs veh, TRMT61B / RFU, FUBP3 / Fold change vs veh, FUBP3 / RFU, TP53 / Fold change vs veh, TP53 / RFU, TNKS2 / Fold change vs veh, TNKS2 / RFU, ZFP14 / Fold change vs veh, ZFP14 / RFU, ACTR2 / Fold change vs veh, ACTR2 / RFU, PPP3R1 / Fold change vs veh, PPP3R1 / RFU, PIK3R1 / Fold change vs veh, PIK3R1 / RFU, HNRNPA1 / Fold change vs veh, HNRNPA1 / RFU, RNF170 / Fold change vs veh, RNF170 / RFU, ZNF28 / Fold change vs veh, ZNF28 / RFU, RNGTT / Fold change vs veh, RNGTT / RFU, OGT / Fold change vs veh, OGT / RFU, BRD1 / Fold change vs veh, BRD1 / RFU, MARS / Fold change vs veh, MARS / RFU, ZNF655 / Fold change vs veh, ZNF655 / RFU, FAHD1 / Fold change vs veh, FAHD1 / RFU, BDP1 / Fold change vs veh, BDP1 / RFU, LRRCC1 / Fold change vs veh, LRRCC1 / RFU, ARID1A / Fold change vs veh, ARID1A / RFU, ZNF146 / Fold change vs veh, ZNF146 / RFU, ZNF330 / Fold change vs veh, ZNF330 / RFU, GPN3 / Fold change vs veh, GPN3 / RFU, C9orf123 / Fold change vs veh, C9orf123 / RFU, N4BP2L2 / Fold change vs veh, N4BP2L2 / RFU, ARFIP1 / Fold change vs veh, ARFIP1 / RFU, FAM179B / Fold change vs veh, FAM179B / RFU, BCL10 / Fold change vs veh, BCL10 / RFU, UHRF1BP1L / Fold change vs veh, UHRF1BP1L / RFU, BET1 / Fold change vs veh, BET1 / RFU, CNOT2 / Fold change vs veh, CNOT2 / RFU, ZNF268 / Fold change vs veh, ZNF268 / Fold change vs veh, ZNF507 / RFU, DGCR2 / Fold change vs veh, DGCR2 / RFU, WDSUB1 / Fold change vs veh, WDSUB1 / Fold change vs veh, HSP90B1 /// MIR3652 / RFU, ADSS / Fold change vs veh, ADSS / RFU, GK / Fold change vs veh, GK / RFU, ZNF148 / Fold change vs veh, ZNF148 / RFU, TAF9 / Fold change vs veh, TAF9 / RFU, SLC1A5 / Fold change vs veh, SLC1A5 / RFU, SLMO2 / Fold change vs veh, SLMO2 / RFU, ABCC4 / Fold change vs veh, ABCC4 / RFU, LOC101060439 /// RAP1B / Fold change vs veh, LOC101060439 /// RAP1B / RFU, RFX7 / Fold change vs veh, RFX7 / RFU, GTPBP10 / Fold change vs veh, GTPBP10 / RFU, CNEP1R1 / Fold change vs veh, CNEP1R1 / RFU, BIVM-ERCC5 /// ERCC5 / Fold change vs veh, BIVM-ERCC5 /// ERCC5 / RFU, ILF3 / Fold change vs veh, ILF3 / RFU 11762660_at / Fold change /veh 11762660_at / RFU VCAN (11757783_s_at) / Fold change /veh VCAN (11757783_s_at) / RFU DDX43 (11728927_at) / Fold change /veh DDX43 (11728927_at) / RFU KRT8 (11758188_x_at) / Fold change /veh KRT8 (11758188_x_at) / RFU NKD1 (11759106_at) / Fold change /veh NKD1 (11759106_at) / RFU SRD5A1 (11742802_a_at) / Fold change /veh SRD5A1 (11742802_a_at) / RFU TPSAB1 /// TPSB2 (11721975_s_at) / Fold change /veh TPSAB1 /// TPSB2 (11721975_s_at) / RFU GSTM3 (11746129_a_at) / Fold change /veh GSTM3 (11746129_a_at) / RFU IL23R (11737362_x_at) / Fold change /veh IL23R (11737362_x_at) / RFU TMEM51 (11727254_a_at) / Fold change /veh TMEM51 (11727254_a_at) / RFU PIWIL2 (11732686_x_at) / Fold change /veh PIWIL2 (11732686_x_at) / RFU ORM1 (11744905_x_at) / Fold change /veh ORM1 (11744905_x_at) / RFU CCDC152 (11743942_at) / Fold change /veh CCDC152 (11743942_at) / RFU ECM1 (11717891_a_at) / Fold change /veh ECM1 (11717891_a_at) / RFU IL23R (11748794_a_at) / Fold change /veh IL23R (11748794_a_at) / RFU TNFAIP8L3 (11732012_x_at) / Fold change /veh TNFAIP8L3 (11732012_x_at) / RFU MBOAT4 (11741988_at) / Fold change /veh MBOAT4 (11741988_at) / RFU 11764193_at / Fold change /veh 11764193_at / RFU TMEM53 (11763286_at) / Fold change /veh TMEM53 (11763286_at) / RFU MAGEB2 (11727129_at) / Fold change /veh MAGEB2 (11727129_at) / RFU TMEM200A (11744735_a_at) / Fold change /veh TMEM200A (11744735_a_at) / RFU CCDC152 (11751479_a_at) / Fold change /veh CCDC152 (11751479_a_at) / RFU FAM211A (11726209_a_at) / Fold change /veh FAM211A (11726209_a_at) / RFU RGS16 (11746705_a_at) / Fold change /veh RGS16 (11746705_a_at) / RFU VCAN (11755009_s_at) / Fold change /veh VCAN (11755009_s_at) / RFU RHOB (11743442_s_at) / Fold change /veh RHOB (11743442_s_at) / RFU RGS16 (11720943_a_at) / Fold change /veh RGS16 (11720943_a_at) / RFU RGS16 (11720944_at) / Fold change /veh RGS16 (11720944_at) / RFU, VPS4B / Fold change vs veh, VPS4B / RFU, CREB1 / Fold change vs veh, CREB1 / RFU, DNAJC13 / Fold change vs veh, DNAJC13 / RFU, GNAQ / Fold change vs veh, GNAQ / RFU, CDK5R1 / Fold change vs veh, CDK5R1 / RFU, ZRANB3 / Fold change vs veh, ZRANB3 / RFU, CUL4A / Fold change vs veh, CUL4A / RFU, CCNY / Fold change vs veh, CCNY / RFU, UFL1 / Fold change vs veh, UFL1 / RFU, COG3 / Fold change vs veh, COG3 / RFU, DIAPH2 / Fold change vs veh, DIAPH2 / RFU, SKA2 / Fold change vs veh, SKA2 / RFU, AFF3 / Fold change vs veh, AFF3 / RFU, LMF1 / Fold change vs veh, LMF1 / RFU, IPO11 / Fold change vs veh, IPO11 / RFU, DFFB / Fold change vs veh, DFFB / RFU, FOXP1 / Fold change vs veh, FOXP1 / RFU, CARD8 / Fold change vs veh, CARD8 / RFU, STRN3 / Fold change vs veh, STRN3 / RFU, ADK / Fold change vs veh, ADK / RFU, RASSF2 / Fold change vs veh, RASSF2 / RFU, WIPF1 / Fold change vs veh, WIPF1 / RFU, LARP1B / Fold change vs veh, LARP1B / RFU, RASA1 / Fold change vs veh, RASA1 / RFU, RB1 / Fold change vs veh, RB1 / RFU, PPFIA1 / Fold change vs veh, PPFIA1 / RFU, MAT2A / Fold change vs veh, MAT2A / RFU, CCT5 / Fold change vs veh, CCT5 / RFU, WDR92 / Fold change vs veh, WDR92 / RFU, CUX1 / Fold change vs veh, CUX1 / RFU, TTC7A / Fold change vs veh, TTC7A / RFU, TMEM135 / Fold change vs veh, TMEM135 / RFU, DEPTOR / Fold change vs veh, DEPTOR / RFU, CPM / Fold change vs veh, CPM / RFU, DNAJB6 / Fold change vs veh, DNAJB6 / RFU, CACNA2D3 / Fold change vs veh, CACNA2D3 / RFU, DTX4 / Fold change vs veh, DTX4 / RFU, TFCP2 / Fold change vs veh, TFCP2 / RFU, GMCL1 /// GMCL1P1 / Fold change vs veh, GMCL1 /// GMCL1P1 / RFU, AEBP2 / Fold change vs veh, AEBP2 / RFU, SNHG1 /// SNORD22 /// SNORD25 /// SNORD26 /// SNORD27 /// SNORD28 /// SNORD29 /// SNORD31 / Fold change vs veh, SNHG1 /// SNORD22 /// SNORD25 /// SNORD26 /// SNORD27 /// SNORD28 /// SNORD29 /// SNORD31 / Fold change (Aza/veh), C12orf56 (ProbeSet 11735607_a_at) / Fold change (ACY-1035/veh), C12orf56 (ProbeSet 11735607_a_at) / Fold change (Aza/veh), FGFR1OP (ProbeSet 11751329_s_at) / Fold change (ACY-1035/veh), FGFR1OP (ProbeSet 11751329_s_at) / Fold change (Aza/veh), VPS36 (ProbeSet 11739960_a_at) / Fold change (ACY-1035/veh), VPS36 (ProbeSet 11739960_a_at) / RFU SYPL1 (11715823_x_at) / Fold change /veh SYPL1 (11715823_x_at) / RFU IGFBP7 (11715501_s_at) / Fold change /veh IGFBP7 (11715501_s_at) / RFU REEP3 (11722064_at) / Fold change /veh REEP3 (11722064_at) / RFU IGLL1 (11728026_x_at) / Fold change /veh IGLL1 (11728026_x_at): dose or concentration left out as unconfirmed
Conditions: ProbeSet 11762504_a_at; LIST D

SMILES: Nc1ncn([C@@H]2O[C@H](CO)[C@@H](O)[C@H]2O)c(=O)n1 [azacitidine]
- Fold change vs veh, ZRANB3: 0.82

Source: article PMC5218480 (PLoS ONE, 2017)
